Bounds are passed on as bounds.

The first assay deals with T1, human CXCR3 (Homo sapiens, UniProt P49682).
T1 construct: expressed in transfected cells; host or cells: CHO cells (membrane preparation)
T1 sequence (P49682 1-368): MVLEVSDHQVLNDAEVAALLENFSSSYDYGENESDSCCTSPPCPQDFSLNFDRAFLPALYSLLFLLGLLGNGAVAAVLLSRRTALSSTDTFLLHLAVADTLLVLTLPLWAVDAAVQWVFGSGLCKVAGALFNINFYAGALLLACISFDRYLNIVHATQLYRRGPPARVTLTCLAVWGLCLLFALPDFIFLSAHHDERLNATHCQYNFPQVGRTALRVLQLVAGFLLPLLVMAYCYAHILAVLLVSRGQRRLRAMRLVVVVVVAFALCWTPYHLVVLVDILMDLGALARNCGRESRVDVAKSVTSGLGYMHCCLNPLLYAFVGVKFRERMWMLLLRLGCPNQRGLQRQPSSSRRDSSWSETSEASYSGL
Briefly: [35S]GTPγS exchange assay, CXCR3 receptor inhibition (hI-TAC-induced GTPγS-binding). In kind it is biochemical. To be noted: -log IC50 (molar) inhibiting 50% of specific I-TAC-induced GTPγS-binding; membranes of human CXCR3-transfected CHO cells. How it is done: CXCR3 Receptor Inhibition was Examined in a [^35S]GTPγS Exchange Assay
The exchange of guanosine 5′-[^35S]triphosphate was measured on membranes of human CXCR3-transfected CHO cells. [^35S]GTPγS exchange assays were performed in 96-well plates with 10 μg of membrane protein/well using basic flashplates (Perkin Elmer). Compounds were dissolved in DMSO and diluted with incubation buffer to yield required concentrations with 9% DMSO. Incubation buffer is composed of 20 mM HEPES, 100 mM NaCl, 3 μM GDP and 1 mM MgCl2, pH 7.4. […] Compound, membranes, hI-TAC (interferon-inducible T-cell alpha chemoattractant) and [^35S]GTPγS were added in a total volume of 200 μl. First, 20 μl of the appropriate compound dilution and 140 μl membranes from CXCR3-CHO cells were dissolved in membrane incubation buffer and pre-incubated for 30 minutes at 30° C. Then, 20 μl of hI-TAC dissolved at 30 nM in incubation buffer was added to the membranes and the mixture containing 1% of DMSO was incubated for another 30 minutes at 30° C. […] After 1 minute shaking and 30 minutes incubation at 30° C., flashplates were centrifuged for 5 minutes at 2500 rpm at room temperature. Flashplate bound radioactivity was determined by liquid scintillation counting. Basal GTPγS-binding was measured in 8 wells with membranes incubated in the same volume with 1% DMSO, without I-TAC. Maximal GTPγS-binding was measured in 8 wells with membranes incubated with 1% DMSO and 3 nM I-TAC. […] IC50 values were calculated using non-linear regression in Graphpad Prism.
(In general: Binding of GTPγS marks nucleotide exchange on a G protein.)
The term pIC50 denotes the negative decadic logarithm of the IC50, by convention in mol/L. A low value points to a high IC50. Take `O=C1CCC(c2ccncc2)(C2CCN(Cc3ccc(Br)cc3)CC2)C(=O)N1` (stereo not shown) [Compound 2]: the negative logarithm of the IC50 (pIC50) is reported as 6.2.

The assay is the same for the next values; noted with them: -log IC50 (molar) inhibiting 50% of specific I-TAC-induced GTPγS-binding; membranes of human CXCR3-transfected CHO cells; read-out: pIC50 (converted).
In the case of `O=C1CCC(c2ccccc2)(N2CCN(Cc3ccc(Cl)c(F)c3)CC2)C(=O)N1` (stereo not shown) [Compound 27], the IC50 is 2510 nM.

As to `O=C1CCC(c2cccc(Cl)c2)(C2CCN(Cc3ccc4ccccc4c3)CC2)C(=O)N1` (stereo not shown) [Compound 149], the IC50 was 5010 nM. Regarding `O=C1CCC(c2ccccc2)(N2CCN(Cc3ccc(Br)cc3)CC2)C(=O)N1` (stereo not shown) [Compound 7], the IC50 is 251 nM. With `CCCN1C(=O)CCC(c2ccccc2)(C2CCN(Cc3ccc(Br)cc3)CC2)C1=O` (stereo not shown) [Compound 128], the IC50 is 3980 nM. Same read-out and setting: as for `O=C1CCC(c2cccnc2)(C2CCN(Cc3ccc(OC(F)(F)F)cc3)CC2)C(=O)N1` (stereo not shown) [Compound 180], the figure is 2510 nM; as for `O=C1CCC(c2ccc(F)cc2)(C2CCN(Cc3ccc(OC(F)(F)F)cc3)CC2)C(=O)N1` (stereo not shown) [Compound 113], 5010 nM; as for `O=C1CCC(c2ccccc2)(C2CCN(Cc3ccc(OCc4ccccc4)cc3)CC2)C(=O)N1` (stereo not shown) [Compound 119], 6310 nM. The same measure, in the same setting: to `O=C1CCC(c2ccccc2)(C2CCN(Cc3ccc(Cl)cc3)CC2)C(=O)N1` (stereo not shown) [Compound 61] belongs 1000 nM; to `O=C1CCC(c2ccc(F)cc2)(C2CCN(Cc3ccc(Cl)c(F)c3)CC2)CN1` (stereo not shown) [Compound 139], 1580 nM; to `CC(c1ccc(Br)cc1)N1CCC(C2(c3ccc(F)cc3F)CCC(=O)NC2=O)CC1` (stereo not shown) [Compound 208], 158 nM. On to `O=C1CCC(c2ccccc2)(C2CCN(Cc3cc(F)c(F)cc3F)CC2)C(=O)N1` (stereo not shown) [Compound 155], for which the IC50 was 2510 nM. As to `O=C1CCC(c2ccc(F)cc2)(C2CCN(Cc3ccc(F)c(Cl)c3)CC2)C(=O)N1` (stereo not shown) [Compound 56], the IC50 was 5010 nM. Consider `O=C1CCC(c2cccc(C(=O)O)c2)(C2CCN(Cc3ccc(Cl)cc3)CC2)C(=O)N1` (stereo not shown) [Compound 66], for which the IC50 was 794 nM.

For the compound `CN1C(=O)CCC(c2ccccc2)(C2CCN(Cc3ccc(Cl)cc3)CC2)C1=O` (stereo not shown) [Compound 120], the IC50 is 1580 nM. Same read-out and setting: as for `O=C1CCC(c2ccc(F)cc2)(C2CCN(Cc3ccc(Br)cc3)CC2)CN1` (stereo not shown) [Compound 143], the figure is 631 nM. For the compound `O=C1CCC(c2ccc(F)cc2)(C2CCN(Cc3ccc(F)c(F)c3)CC2)C(=O)N1` (stereo not shown) [Compound 49], the IC50 is 3980 nM.

With `O=C1CCC(c2ccc(F)c(F)c2)(C2CCN(Cc3ccc(Cl)c(F)c3)CC2)C(=O)N1` (stereo not shown) [Compound 192], the IC50 was 2510 nM. The same measure, in the same setting: as for `CN1C(=O)CCC(c2ccccc2)(C2CCN(Cc3ccc(Cl)c(Cl)c3)CC2)C1=O` (stereo not shown) [Compound 122], the figure is 5010 nM. On the same count and under the same terms, as for `O=C1CCC(c2cccnc2)(C2CCN(Cc3ccc(Cl)c(F)c3)CC2)C(=O)N1` (stereo not shown) [Compound 176], the figure is 2000 nM. On the same count and under the same terms, to `Cc1cccc(C2(C3CCN(Cc4ccc(Cl)cc4)CC3)CCC(=O)NC2=O)c1` (stereo not shown) [Compound 64] belongs 2000 nM; to `Cc1cccc(C2(C3CCN(Cc4ccc(F)c(F)c4F)CC3)CCC(=O)NC2=O)c1` (stereo not shown) [Compound 52], 1260 nM; to `O=C1CCC(c2ccc(F)cc2F)(C2CCN(Cc3ccc(Br)c(F)c3)CC2)C(=O)N1` (stereo not shown) [Compound 197], 398 nM.

For the compound `O=C1CCC(c2ccccc2)(C2CCN(Cc3ccc(OCc4ccc(Cl)cc4)cc3)CC2)CN1` (stereo not shown) [Compound 148], the IC50 was 6310 nM. The same measure, in the same setting: as for `COc1cccc(C2(C3CCN(Cc4ccc(Cl)c(F)c4)CC3)CCC(=O)NC2=O)c1` (stereo not shown) [Compound 79], the figure is 251 nM; as for `CC(c1ccc(Br)cc1)N1CCC(C2(c3ccccc3)CCC(=O)NC2=O)CC1` (single isomer, unassigned) [Compound 17], 2000 nM. On the same count and under the same terms, to `O=C1CCC(c2ccc(F)cc2F)(C2CCN(Cc3ccc(Cl)cc3)CC2)C(=O)N1` (stereo not shown) [Compound 199] belongs 251 nM; to `O=C1CCC(c2ccccn2)(C2CCN(Cc3ccc(Cl)c(F)c3)CC2)C(=O)N1` (stereo not shown) [Compound 29], 794 nM; to `Cc1cc(CN2CCC(C3(c4ccc(F)cc4F)CCC(=O)NC3=O)CC2)ccc1Br` (stereo not shown) [Compound 196], 316 nM. As for `COc1cccc(C2(C3CCN(Cc4ccc(Cl)cc4Cl)CC3)CCC(=O)NC2=O)c1` (stereo not shown) [Compound 74], the IC50 is 3980 nM. The same measure, in the same setting: as for `Cc1cc(CN2CCC(C3(c4ccccc4)CCC(=O)NC3=O)CC2)ccc1F` (stereo not shown) [Compound 59], the figure is 1260 nM; as for `O=C1CCC(c2ccc(F)cc2F)(C2CCN(Cc3ccc(Br)cc3)CC2)C(=O)N1` (racemic) [Compound 194], 100 nM.

Consider `O=C1CCC(c2cccc(C(=O)O)c2)(C2CCN(Cc3ccc(Cl)cc3Cl)CC2)C(=O)N1` (stereo not shown) [Compound 73], for which the IC50 was 501 nM. Same read-out and setting: as for `O=C1CCC(c2ccccc2)(C2CCN(Cc3ccc(Cl)c(Cl)c3)CC2)CN1` (stereo not shown) [Compound 140], the figure is 794 nM. Still for that read-out and setting: as for `Cc1cccc(C2(C3CCN(Cc4ccc(C(F)(F)F)cc4)CC3)CCC(=O)NC2=O)c1` (stereo not shown) [Compound 104], the figure is 3980 nM.

For `O=C1CCC(c2ccc(F)cc2F)(C2CCN(Cc3ccc(OC(F)F)cc3)CC2)C(=O)N1` (stereo not shown) [Compound 205], the IC50 was 631 nM. For the compound `O=C1CCC(c2ccccc2)(C2CCN(Cc3ccc(Cl)cc3)CC2)C(=O)N1` (stereo not shown) [Compound 62], the IC50 was 794 nM. On the same count and under the same terms, as for `O=C1CCC(c2ccc(F)cc2)(C2CCN(Cc3ccc(OC(F)F)cc3)CC2)C(=O)N1` (stereo not shown) [Compound 111], the figure is 1000 nM; as for `O=C1CCC(c2ccc(F)cc2)(C2CCN(Cc3ccc(F)c(Br)c3)CC2)C(=O)N1` (stereo not shown) [Compound 58], 7940 nM.

Turning to `O=C1CCC(c2ccc([N+](=O)[O-])cc2)(C2CCN(Cc3ccccc3[N+](=O)[O-])CC2)C(=O)N1` (stereo not shown) [Compound 186], the IC50 is above 10000 nM. The same measure, in the same setting: as for `O=C1CCC(c2ccc(F)cc2F)(C2CCN(Cc3ccc4nonc4c3)CC2)C(=O)N1` (stereo not shown) [Compound 207], the figure is 398 nM; as for `O=C1CCC(c2ccncc2)(C2CCN(Cc3ccc(-c4ccccc4)cc3)CC2)C(=O)N1` (stereo not shown) [Compound 174], 5010 nM. For the compound `O=C1CCC(c2cccc(Cl)c2)(C2CCN(Cc3ccc(Cl)c(F)c3)CC2)C(=O)N1` (stereo not shown) [Compound 77], the IC50 was 794 nM. As to `COc1ccc(CN2CCC(C3(c4ccccc4)CCC(=O)NC3=O)CC2)cc1` (stereo not shown) [Compound 107], the IC50 was 3980 nM. Turning to `Cc1cccc(C2(C3CCN(Cc4ccc(Cl)cc4Cl)CC3)CCC(=O)NC2=O)c1` (stereo not shown) [Compound 72], the IC50 was 6310 nM. Still for that read-out and setting: to `O=C1CCC(c2ccc(F)cc2)(C2CCN(Cc3ccc(Cl)c(F)c3)CC2)C(=O)N1` (stereo not shown) [Compound 26] belongs 200 nM; to `CC(c1ccc(Br)cc1)N1CCC(C2(c3ccccc3)CCC(=O)NC2=O)CC1` (single isomer, unassigned) [Compound 18], 398 nM. In the case of `Cc1cc(CN2CCC(C3(c4ccc(F)cc4)CCC(=O)NC3)CC2)ccc1Br` (stereo not shown) [Compound 145], the IC50 is 794 nM. Regarding `CC(c1ccc(Br)cc1)N1CCC(C2(c3ccccc3)CCCNC2=O)CC1` (stereo not shown) [Compound 11], the IC50 was 794 nM.

Take `O=C1CCC(c2ccc(F)cc2)(C2CCN(Cc3cc(F)c(F)cc3F)CC2)C(=O)N1` (stereo not shown) [Compound 156]: the IC50 was 794 nM. Still for that read-out and setting: as for `CC(c1ccc(Br)cc1)N1CCC(C2(c3ccncc3)CCC(=O)NC2=O)CC1` (stereo not shown) [Compound 171], the figure is 1580 nM. Still for that read-out and setting: to `CC(c1ccc(Br)cc1)N1CCC(C2(c3ccc(F)cc3)CCC(=O)NC2=O)CC1` (stereo not shown) [Compound 3] belongs 200 nM.

The same assay, now with this note: pIC50, -log IC50 (molar) inhibiting 50% of specific I-TAC-induced GTPγS-binding; membranes of human CXCR3-transfected CHO cells.
For `O=C1CCC(c2ccccc2)(C2CCN(Cc3ccc(Br)cc3)CC2)C(=O)N1` (stereo not shown) [Compound 10], the IC50 was 316 nM. Same read-out and setting: to `Nc1cccc(C2(C3CCN(Cc4ccc(Br)cc4)CC3)CCC(=O)NC2=O)c1` (stereo not shown) [Compound 35] belongs 316 nM; to `COc1cccc(C2(C3CCN(Cc4ccc(Br)cc4)CC3)CCC(=O)NC2=O)c1` (stereo not shown) [Compound 8], 1580 nM; to `O=C1CCC(c2cccc(C(F)(F)F)c2)(C2CCN(Cc3ccc(Cl)cc3)CC2)C(=O)N1` (stereo not shown) [Compound 65], 2510 nM. As to `O=C1CCC(c2ccccc2)(C2CCN(Cc3ccc(Br)cc3)CC2)C(=O)N1` (single isomer, unassigned) [Compound 13], the IC50 is 316 nM.

Still in this assay, the particulars now being: read-out: pIC50 (converted).
On to `Cc1cccc(C2(C3CCN(Cc4ccc(Br)cc4)CC3)CCC(=O)NC2=O)c1` (stereo not shown) [Compound 9], for which the IC50 was 2000 nM.

(Values after patent US20090030039A1, “Piperidine Derivatives as Cxcr3 Receptor Antagonists” (priority 2006, published 2009).)
